Consider 2 molecules from PMC9994763, “A Conformational Change in the N Terminus of SLC38A9 Signals mTORC1 Activation” (Structure (London, England : 1993), 2020).

Substitutions are numbered along the chain they refer to.

Holding throughout (type): biochemical
The target of assay [1] is T1, drSLC38A9 (drSLC38A9^71-549) (Danio rerio, UniProt Q08BA4, N227Q/N235Q/N252Q/N263Q).
T1 construct: gene slc38a9; residues 71-549 (N-plug kept); N-terminal His8-thrombin tag removed; Sf-9; liposomes; the printed 5A DNA also starts at residue 71
T1 sequence (Q08BA4 71-549 N227Q/N235Q/N252Q/N263Q): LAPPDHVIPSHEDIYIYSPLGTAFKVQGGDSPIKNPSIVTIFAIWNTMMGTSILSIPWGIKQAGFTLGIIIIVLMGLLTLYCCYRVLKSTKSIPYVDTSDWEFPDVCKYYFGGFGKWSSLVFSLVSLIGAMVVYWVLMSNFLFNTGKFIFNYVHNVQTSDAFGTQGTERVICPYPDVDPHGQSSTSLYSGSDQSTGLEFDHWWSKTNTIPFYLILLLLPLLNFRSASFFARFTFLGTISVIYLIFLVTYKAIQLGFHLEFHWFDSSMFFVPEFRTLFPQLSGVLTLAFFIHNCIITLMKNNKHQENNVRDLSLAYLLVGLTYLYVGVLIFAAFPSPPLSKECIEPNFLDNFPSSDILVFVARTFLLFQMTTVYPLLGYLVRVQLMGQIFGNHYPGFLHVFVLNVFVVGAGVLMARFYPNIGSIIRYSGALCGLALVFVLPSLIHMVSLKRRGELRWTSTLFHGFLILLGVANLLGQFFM
Put plainly: [3H]arginine uptake in proteoliposomes, filtration, […] min. The note with it: outside pH 7.4, inside pH 5.0, room temperature; 0.5 uM labelled compound.

The target of assay [2] is T2, drSLC38A9 (drSLC38A9^71-549) (Danio rerio, UniProt Q08BA4, P79A/S80A/H81A/E82A/Y85A/N227Q/N235Q/N252Q/N263Q).
T2 construct: gene slc38a9; residues 71-549 (N-plug kept); N-terminal His8-thrombin tag removed; Sf-9; liposomes; the printed 5A DNA also starts at residue 71
T2 sequence (Q08BA4 71-549 P79A/S80A/H81A/E82A/Y85A/N227Q/N235Q/N252Q/N263Q): T1 sequence (Q08BA4 71-549 N227Q/N235Q/N252Q/N263Q) with P9A, S10A, H11A, E12A, Y15A
Briefly: [3H]leucine uptake in proteoliposomes, filtration. The note with it: 0.5 uM labelled compound, pH 5.0 assay buffer, room temperature; with or without 200 uM arginine.

Assay [3] has as its target T3, drSLC38A9^97-549 (N-terminal deletion, without N-plug) (Danio rerio, UniProt Q08BA4, N227Q/N235Q/N252Q/N263Q).
T3 construct: gene slc38a9; residues 97-549 (N-plug deleted); N-terminal His8-thrombin tag removed; Sf-9; liposomes
T3 sequence (Q08BA4 97-549 N227Q/N235Q/N252Q/N263Q): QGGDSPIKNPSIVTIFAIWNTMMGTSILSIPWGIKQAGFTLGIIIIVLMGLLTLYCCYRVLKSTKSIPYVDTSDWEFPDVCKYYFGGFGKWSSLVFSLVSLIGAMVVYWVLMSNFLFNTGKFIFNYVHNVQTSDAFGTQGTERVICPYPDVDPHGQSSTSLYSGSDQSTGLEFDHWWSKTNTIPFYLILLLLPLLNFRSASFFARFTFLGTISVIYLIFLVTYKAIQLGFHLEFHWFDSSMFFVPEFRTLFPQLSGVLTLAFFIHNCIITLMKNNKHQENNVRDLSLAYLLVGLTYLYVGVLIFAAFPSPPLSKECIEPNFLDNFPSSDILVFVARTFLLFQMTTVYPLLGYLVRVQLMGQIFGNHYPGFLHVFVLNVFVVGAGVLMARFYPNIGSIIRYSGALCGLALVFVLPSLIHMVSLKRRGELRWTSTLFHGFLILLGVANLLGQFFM
Put plainly: [3H]leucine uptake in proteoliposomes, filtration. Particulars: 0.5 uM labelled compound, pH 5.0 assay buffer, room temperature; with or without 200 uM arginine.

As to `N=C(N)NCCC[C@H](N)C(=O)O` [arginine], the “[3H]arginine uptake in proteoliposomes, filtration, 5 min” value in assay [1] is “the construct studied structurally here and the wild-type drSLC38A9 transport arginine with similar rates”.

For `CC(C)C[C@H](N)C(=O)O` [leucine], the “[3H]leucine uptake in proteoliposomes, filtration” value in assay [2] and in assay [3] was “The mutant proteins show similar transport capacity for leucine regardless of whether arginine was added” in each case.
